Tests used:
Type in all cases: cell-based, human
endogenous p21 = experiment: Induction of endogenous p21 in HeLa cells, immunoblot; conditions: 13 hour treatment, immunoblot densitometry, read-out: Endogenous p2 EC50
Method: (§1) Induction of endogenous p21 and acetylation of core histones (inhibition of HDAC activity) was as follows. Dose-response experiments were performed in HeLa cells with different classes of known HDAC inhibitors. […] An α-tubulin-specific antibody (Sigma, St. Louis, Mo.; catalog number: T9026) was used as an internal standard. Quantitative data were obtained by densitometric analysis of X-ray films and were normalized for the internal standard values.

[1] = test system: HDAC activity (acetylated histone H3); experiment: Acetylation of core histones (inhibition of HDAC activity) in HeLa cells, acetylated histone H3 immunoblot; conditions: HeLa cells, 13 hour treatment, immunoblot densitometry; read-out: AcH3 EC50
Method: as §1

p21 minimal promoter [2] = experiment: Transient transfection of HeLa cells with p21m-SEAP reporter plasmid, SEAP activity; conditions: Apicidin 1 μM, TSA 300 nM; for SEAP (10 min) / SEAP norm-bckg/RLU norm: Table 5
Method: To determine whether the p21 minimal promoter was responsive to HDAC inhibitors, a reporter plasmid containing the secreted alkaline phosphatase gene (SEAP) operably linked to the p21 minimal promoter (−182 through +25), pcDNA3-21m-SEAP, was tested in transient transfection experiments of HeLa cells. […] All data summarized in Tables 4 through 7 were obtained by normalizing the total amount of transfected DNA to 2.1 μg using a promoterless plasmid.

CMV promoter = experiment: Transient transfection of HeLa cells with CMV-BLA (pCMV-BLA) reporter plasmid, Bla staining (blue cells)
Method: (§2) The p21m-BLA reporter plasmid was tested in transient transfection experiments of HeLa cells to evaluate the responsiveness of the minimal p21 promoter and the Bla reporter system to known HDAC inhibitors. In the first two transfection experiments, HeLa cells were transfected with 1 or 2 μg of Bla reporter plasmid containing either p21 minimal promoter (p21m-BLA) or CMV promoter (CMV-BLA) and 0.1 μg of pCMV-Luc or pRSV-Luc control plasmids. Different DNA-FUGENE transfection reagent ratios were tested (FUGENE is available from Roche Applied Science, Indianapolis, Ind.). […] Data are summarized below in Tables 1 and 2.
(§3) The percentage of β-lactamase-positive cells increased with time independent of the presence of HDAC inhibitors and was constantly higher with p21m-BLA than with pCMV-BLA.
(§4) In light of the above, the lack of apparent Bla activation in the above transfection experiments might have been due to the high sensitivity of the method. Therefore, transient transfections in which an accurate titration of the reporter plasmid DNA were performed. The titration of the reporter plasmid included using amounts lower than was used above. […] The transient transfections were repeated and the result confirmed (Table 7).

HeLa cells = experiment: Cell death in transiently transfected HeLa cells
Method: as §2, §3

p21 minimal promoter [3] = experiment: Transient transfection of HeLa cells with p21m-BLA reporter plasmid, Bla staining (blue cells)
Method: as §2, §3, §4

p21 minimal promoter [4] = experiment: Fluorometric β-lactamase activity assay in stable HeLa clone 1.17 (p21m-BLA)
Method: All clones were screened for the presence of stably and functional integrated copies of the p21m-BLA reporter gene transcription cassette by performing a fluorometric β-lactamase activity assay after treatment with the HDAC inhibitor Apicidin at a concentration of 1 μM (saturating dose representing 100% of Bla gene activation, i.e., 100% of HDAC inhibition). A 100 μL aliquot of cells for each stable transformant in complete DMEM was plated into a well of a 96 well plate at about 36,000 cells per well for treatment with 1 μM Apicidin (saturating dose) and a 100 μL aliquot of cells was plated into a well of a 96 well plate at 24,000 cells per well for treatment with DMSO (vehicle control). […] After 4 hours, 25 μL of complete DMEM containing Apicidin at 5× final concentration or DMSO (5%) was added to each of the wells. The cells were then grown at 37° C., 5% CO2 for about 12 to 16 hours. Afterwards, the medium was removed and 100 μL of DMEM without serum and 25 μL of FRET labeled CCF2-AM Bla substrate diluted in the appropriate buffer according to the manufacturer recommendations were each added to the cells to give a final concentration of 1 μM CCF2-AM.

CC(/C=C/C(=O)NO)=C\[C@@H](C)C(=O)c1ccc(N(C)C)cc1 [TSA, Trichostatin A]
EC50 (endogenous p21): 190 nM | EC50 [1]: 130 nM | induction of SEAP (maximum) (p21 minimal promoter [2]; p21m-SEAP promoter titration in HeLa): up to 26 fold | SEAP (10 min) (p21 minimal promoter [2]; P21m-SEAP 0 μg DNA (total DNA 2.1 μg)): 2313 | SEAP norm-bckg/RLU norm (p21 minimal promoter [2]; P21m-SEAP 0.1 μg DNA): 6,558.72 | SEAP (10 min) (p21 minimal promoter [2]; P21m-SEAP 0.1 μg DNA (total DNA 2.1 μg)): 4405 | SEAP norm-bckg/RLU norm (p21 minimal promoter [2]; P21m-SEAP 0.2 μg DNA): 11,855.92 | SEAP (10 min) (p21 minimal promoter [2]; P21m-SEAP 0.2 μg DNA (total DNA 2.1 μg)): 9328 | SEAP norm-bckg/RLU norm (p21 minimal promoter [2]; P21m-SEAP 0.5 μg DNA): 25,471.82 | SEAP (10 min) (p21 minimal promoter [2]; P21m-SEAP 0.5 μg DNA (total DNA 2.1 μg)): 15743 | SEAP norm-bckg/RLU norm (p21 minimal promoter [2]; P21m-SEAP 1 μg DNA): 108,713.07 | SEAP (10 min) (p21 minimal promoter [2]; P21m-SEAP 1 μg DNA (total DNA 2.1 μg)): 50626 | SEAP norm-bckg/RLU norm (p21 minimal promoter [2]; P21m-SEAP 2 μg DNA): 201,678.57 | SEAP (10 min) (p21 minimal promoter [2]; P21m-SEAP 2 μg DNA (total DNA 2.1 μg)): 109998 | % Blue cells (CMV promoter; Table 1, 400 nM, 12 hours induction, 1 μg CMV-BLA + 3 μL F): 5% | % Blue cells (CMV promoter; Table 1, 400 nM, 12 hours induction, 2 μg CMV-BLA + 6 μL F): 15-20% | % Blue cells (CMV promoter; Table 2, 400 nM, 12 hours induction, 1 μg CMV-BLA + 3 μL F): 5% | % Blue cells (CMV promoter; Table 2, 400 nM, 12 hours induction, 2 μg CMV-BLA + 6 μL F): 5% | % Blue cells (CMV promoter; Table 2, 400 nM, 12 hours, 1 μg CMV-BLA + 3 μL F + CMV-luc): 5% | % Blue cells (CMV promoter; Table 2, 400 nM, 12 hours, 1 μg CMV-BLA + 3 μL F + RSV-luc): 7% | % Blue cells (CMV promoter; Table 2, 400 nM, 12 hours, 2 μg CMV-BLA + 6 μL F + CMV-luc): 7% | % Blue cells (CMV promoter; Table 2, 400 nM, 12 hours, 2 μg CMV-BLA + 6 μL F + RSV-luc): 7% | % Blue cells (CMV promoter; Table 3, 2 μg pCMV-BLA + 0.1 μg pCMV-Luc, 12 hr treatment, TSA 300 nM, Apicidin 1 μM): 4-5% | % Blue cells (CMV promoter; Table 3, 2 μg pCMV-BLA + 0.1 μg pCMV-Luc, 24 hr treatment, TSA 300 nM, Apicidin 1 μM): 15% | cells dead after treatment (HeLa cells; 400 nM, 12 hours induction, transfected HeLa cells, both experiments): approximately 50% | cell death at longer incubation times, compared with Apicidin (HeLa cells; 12 and 24 hours, TSA 300 nM vs Apicidin 1 μM): higher fraction of cells died | Cell-death (HeLa cells; after 6 hours, TSA 300 nM, Apicidin 1 μM, transfected HeLa cells): not visible | % Blue cells (p21 minimal promoter [3]; Table 1, 400 nM, 12 hours induction, 1 μg p21m-BLA + 3 μL F): 1% | % Blue cells (p21 minimal promoter [3]; Table 1, 400 nM, 12 hours induction, 1 μg p21m-BLA + 5 μL F): <1% | % Blue cells (p21 minimal promoter [3]; Table 1, 400 nM, 12 hours induction, 2 μg p21m-BLA + 6 μL F): 1% | % Blue cells (p21 minimal promoter [3]; Table 1, 400 nM, 12 hours induction, 2 μg p21m-BLA + 10 μL F): <1% | % Blue cells (p21 minimal promoter [3]; Table 2, 400 nM, 12 hours induction, 1 μg p21m-BLA + 3 μL F): 5% | % Blue cells (p21 minimal promoter [3]; Table 2, 400 nM, 12 hours induction, 2 μg p21m-BLA + 6 μL F): 5% | % Blue cells (p21 minimal promoter [3]; Table 2, 400 nM, 12 hours, 1 μg p21m-BLA + 3 μL F + CMV-luc): 4% | % Blue cells (p21 minimal promoter [3]; Table 2, 400 nM, 12 hours, 1 μg p21m-BLA + 3 μL F + RSV-luc): 5% | % Blue cells (p21 minimal promoter [3]; Table 2, 400 nM, 12 hours, 2 μg p21BLA + 6 μL F + CMV-luc): 4% | % Blue cells (p21 minimal promoter [3]; Table 2, 400 nM, 12 hours, 2 μg p21m-BLA + 6 μL F + RSV-luc): 4% | % Blue cells (p21 minimal promoter [3]; Table 3, 2 μg p21m-BLA + 0.1 μg pCMV-Luc, 6 hr treatment, TSA 300 nM, Apicidin 1 μM): 2-3% | % Blue cells (p21 minimal promoter [3]; Table 3, 2 μg p21m-BLA + 0.1 μg pCMV-Luc, 12 hr treatment, TSA 300 nM, Apicidin 1 μM): 10% | % Blue cells (p21 minimal promoter [3]; Table 3, 2 μg p21m-BLA + 0.1 μg pCMV-Luc, 24 hr treatment, TSA 300 nM, Apicidin 1 μM): 10% | reversion of Bla induction after FACS sorting (p21 minimal promoter [4]; clone 1.17, 600 nM for 13 hr, then 7 days in culture, DMSO-treated samples): Complete reversion | reversibility of induction of BlaM transcription (p21 minimal promoter [4]; clone 1.17, 300 or 600 nM for 13 hours, 48 hours after removal): complete shut down of β-lactamase activity | EC50 (p21 minimal promoter [4]; clone 1.17, about 13 hours treatment, means of 3 to 4 independent experiments, read-out: p21m-Bla EC50): 90 nM

Source: patent US20080057529A1, “Method for Identifying Histone Deacetylase Inhibitors” (priority 2003, published 2008)
